Experiments:
Assay type in all cases: in vivo, mouse
[1] = test system: TPH1 mRNA; experiment: TPH1 message levels in ER-β knockout mice
Procedure: Female mice (13 to 16 wks of age) were ovariectomized (C57BL/6s from Charles River; ER Knockout animals from Taconic). Animals were fed a soy-free rodent chow and allowed a minimum of one week to recuperate from surgery and shipping. Mice were dosed subcutaneously in the morning (once daily for 4 days) with 0.1 cc of vehicle (sesame oil) or compound (3, 10, or 20 mpk dexamethasone, RU486, estradiol, or prednisolone as indicated). Approximately six hours following the fourth dose, mice were deeply anesthetized with ketamine/xylazine and brains were removed from the skull, placed ventral side up in a mouse brain block on ice, and ice-cold razor blades were inserted into the block at 1 mm intervals. The caudal extent of the hypothalamus was used as an anatomical marker for the placement of the first razor blade, and 4 blades were placed in sequential slots, caudally. The four sections were examined and the two that encompassed the greatest extent of the dorsal raphe were placed in a tube containing RNALATER (Ambion, Austin, Tex.) and placed at 4° C. overnight. Brain slices were removed from RNALATER after 24 hours and stored at −80° C. in fresh tubes.

[2] = Uterine weight of ovariectomized female mice; conditions: FIG. 12
[3] = test system: TPH1 mRNA; experiment: TPH1 mRNA in murine DRN by in situ hybridization histochemistry (TPH1-892 antisense riboprobe); conditions: 0.2 mpk s.c. once daily for four days; ovariectomized mice; FIG. 5A

C[C@]12CC[C@@H]3c4ccc(O)cc4CC[C@H]3[C@@H]1CC[C@@H]2O [17β-estradiol]
effect on TPH1 message levels [1]: no effect | uterine weight measurements [2]: dramatically induced | TPH1 mRNA induction in the DRN [3]: 3 fold
